Results on 2 compounds are retold here after US20110136883A1, “GRANULATION OF ACTIVE PHARMACEUTICAL INGREDIENTS” (LEK PHARMACEUTICALS D.D., priority 2008, published 2011).

What all share (format): physicochemical
Data set [1] in a line: Physical properties of bulk powder / final granulate (moisture, densities, compressibility, flowability, angle of repose). The procedure:
Therefore, an oral pharmaceutical dosage needs a high dose of eprosartan mesylate to be incorporated into the pharmaceutical formulation in order to achieve the desired biological effect (here: significant reduction of blood pressure). The recommended daily starting and usual maintenance dose of eprosartan mesylate when used as monotherapy is 735.8 mg, equivalent to 600 mg eprosartan, available as the commercial Teveten 600 mg tablets. Therefore, the amount of excipients, required to achieve satisfactory technological properties (i.e. flowability, compressibility) should be the least possible to keep the weight of the tablet as low as possible (i.e. less than 1000 mg). Solubility, flowability or compressibility can be determined by using known methods in the art, for example the methods explained in the European Pharmacopoeia, 6th Edition. Larger tablets are in the light of patient compliance less preferred. WO 2006/052461 A1 proposes to enhance bioavailability of eprosartan by addition of substantial amounts of a solubilizer and an emulsifier.
Physical properties of briquetting powder as well as final mixture are important for a successful technological procedure using NAMADG.
Further, the impact of various nonaqueos liquid excipients on the formulation of Eprosartan tablets obtained from Examples 3 to 7 (cf. Tables 2 and 3), referring to a matrix of 1000 mg (mass after NAMADG+briquetting+sieving+blending), are summarized in Table 4.

A short description of the next data set: Hygroscopicity. The settings on record: at over 60% RH. The procedure: Hygroscopicity of an API or excipient can be measured by methods known to a skilled person. Mainly, such methods comprise determining the mass of small amounts of sample (i.e. 5-10 mg) as a function of time, while varying the controlled relative humidity and/or temperature in the environment. Data on hygroscopicity of mainly used excipients can be obtained from Handbook of Pharmaceutical Excipients, 4th edition, Rowe R C, Sheskey P J, Weller P J, eds.; Pharmaceutical Press and American Pharmaceutical Association, London-Washington, UK-USA, 2003.

The nature of data set [2]: X-ray diffraction check of eprosartan mesylate form (physical stability during processing). The note with it: ambient temperature and humidity used throughout the NAMADG-based method. The procedure:
In order to test the ability of the NAMADG process principle according to the present invention for preparing tablets without occurrence different polymorphic forms of the API in the product, a placebo powder without API and anhydrous eprosartan mesylate processed according to Examples 2 to 7 were investigated. All examples were checked for eprosartan form. For comparison tests were conducted after conventional wet granulation conditions.
As a result, physical stability of the eprosartan mesylate was proven during processes when using the most critical API form, i.e. the anhydrate. […] The final tablet form and placebo powder were analyzed by X-ray diffraction (XRD) pattern to confirm presence of anhydrous form of eprosartan mesylate. More generally, X-ray diffraction (XRD) pattern can be obtained by methods known in the art, for example using Philips X'Pert PRO diffractometer with X'Celerator detector while exposing the searched material to CuKa radiation.

The mark [3] stands for this setting: bulk eprosartan, particle size <10μ.

For the compound `CCCCc1ncc(/C=C(\Cc2cccs2)C(=O)O)n1Cc1ccc(C(=O)O)cc1` [Bulk eprosartan], in data set [1] (setting [3]), the “Angle of repose (°)” value was above 43 °, the “Compressibility (%)” value is recorded as above 30%, the “Flow density” value was above 4.00 mL/g and the “Moisture (%)” value is reported as 0.1-0.5%. Besides, in data set [1] (setting [3]), the “Tapped density” value is above 3.00 mL/g and the “flowability” value was below 0.10 g/s.
In the case of `CCCCc1ncc(/C=C(\Cc2cccs2)C(=O)O)n1Cc1ccc(C(=O)O)cc1.CS(=O)(=O)O` [eprosartan mesylate, (E)-α-[2-n-butyl-1-[(4-carboxyphenyl)methyl]-1H-imidazol-5-yl]methylene-2-thiophenepropionic acid monomethanesulfonate], the flowability result in data set [1] (drug per se, sticking on punches) is reported as “below 0.15 g/sec”. The hygroscopicity entry in the data set “Hygroscopicity” is “hygroscopic”. Further, in data set [2], the “physical and chemical stability” value is “physically and chemically stable”.
